Reference: patent US20220409723A1, “NOVEL VACCINE ADJUVANT COMPOSITION INCLUDING BAVACHIN” (KOREA INSTITUTE OF ORIENTAL MEDICINE, priority 2019, published 2022)

Tests used:
C57/BL6 mice [1] = assay: Percentages of CD4 and CD8 cells in splenocytes by FACS analysis; type: in vivo, mouse; settings: mice injected with bavachin together with OVA vs OVA alone; FIG. 6
Procedure: (§1) C57/BL6 mice were immunized with a mixture of OVA (10 μg) and bavachin (10 μg) or a mixture of OVA (10 μg) and bavachin (100 μg) by subcutaneous injection once every 1, 3, and 4 weeks. In this regard, those injected with OVA (10 μg) alone was used as a control.
(§2) Briefly, at 28 days after the first immunization, lymph nodes and spleens were removed from 5 mice per the treated mouse group (0.5% CMC (CON), OVA, Bavachin […], OVA+Bavachin), and ground to isolate cells from the tissue capsule. The spleens were subjected to hemolysis by treatment with an RBC lysis buffer, and splenocytes were isolated.
Therefore, percentages of CD4 cells and CD8 cells were compared by performing FAGS analysis of the splenocytes (FIG. 6).

C57/BL6 mice [2] = assay: Percentages of effector T cells in lymph node cells by FACS analysis; type: in vivo, mouse; settings: mice injected with bavachin together with OVA vs OVA alone; FIG. 7
Procedure: as §1, §2
Further, percentages of CD44^+CD62L^−CD4 cells and CD44^+CD62L^−CD8 cells, which are effector T cells, were compared by performing FAGS analysis of the lymph node cells (FIG. 7).

C57/BL6 mice [3] = assay: OVA-specific IgG antibody titer in mouse sera by ELISA; type: in vivo; settings: mice injected s.c. with bavachin (10 or 100 μg) together with OVA (10 μg) vs OVA alone; sera at 28 and 42 days; FIG. 1
Procedure: as §1
At 28 days and 42 days after the first immunization in Example 2, mouse sera were collected, and the titers of antigen-specific IgG antibodies in the sera were measured by way of ELISA (FIG. 1). At this time, in the ELISA method, an OVA-coated plate was blocked, and then sera of a control group and an experimental group were incubated at various serial dilution rates. Thereafter, horseradish peroxidase-conjugated mouse-IgG and IgG1 antibodies were added, and a substrate was added and allowed to react, followed by measurement with an ELISA reader.

[4] = test system: splenocytes and lymph node cells; assay: Antigen-specific cell proliferation of splenocytes and lymph node cells by MTS; type: cell-based, mouse; settings: cells from mice injected with bavachin together with OVA vs OVA alone; day 28; treated with OVA 48 hours; FIG. 3
Procedure: as §1, §2
(§3) The isolated splenocytes and lymph node cells were dispensed in a 96-well-plate at a density of 1×10^6 cells/well, followed by treated with OVA for 48 hours. Thereafter, cell proliferation was measured by MTS (FIG. 3), and cytokines (IFN-γ, IL-2, IL-4, IL-6, IL-10, and TNF) secreted from the cells were measured by CBA (FIG. 4).

C57/BL6 mice [5] = assay: Total numbers of splenocytes and lymph node cells; type: in vivo, mouse; settings: mice injected with bavachin together with OVA vs OVA alone; day 28; FIG. 5
Procedure: as §1, §2
The total numbers of the splenocytes and lymph node cells obtained in Example 5 were counted (FIG. 5).

C57/BL6 mice [6] = assay: Serum immunoglobulin isotyping assay (CBA isotyping kit); type: in vivo, mouse; settings: mice injected with bavachin together with OVA vs OVA alone; FIG. 2
Procedure: as §1
Antibody subclasses in the mouse sera collected in Example 3 were stained with CBA (Cytometric Bead Array) isotyping kit and analyzed by FAGS (FIG. 2).

[7] = test system: splenocytes and lymph node cells; assay: Cytokines secreted from splenocytes and lymph node cells by CBA; type: cell-based, mouse; settings: cells from mice injected with bavachin together with OVA vs OVA alone; day 28; treated with OVA 48 hours; FIG. 4
Procedure: as §1, §2, §3

## CC(C)=CCc1cc2c(cc1O)O[C@H](c1ccc(O)cc1)CC2=O [bavachin]
C57/BL6 mice [1]
  percentage of CD4 cells in splenocytes: relatively high levels
  percentage of CD8 cells in splenocytes: relatively high levels
C57/BL6 mice [2]
  percentages of effector T cells (CD44+CD62L−CD4 and CD44+CD62L−CD8) in lymph node cells: relatively high levels
C57/BL6 mice [3]
  OVA-specific antibody titers: significantly increased
[4]
  cell proliferation ability of lymph node cells: relatively excellent cell proliferation ability
  cell proliferation ability of splenocytes: relatively excellent cell proliferation ability
C57/BL6 mice [5]
  number of lymph node cells: relatively high levels
  number of splenocytes: no significant difference
C57/BL6 mice [6]
  IgA immunoglobulin level in sera: relatively high levels
  IgG1 immunoglobulin level in sera: relatively high levels
[7]
  levels of cytokines (IFN-γ, IL-2, IL-4, IL-6, IL-10, and TNF) secreted from lymph node cells: relatively high levels
  levels of cytokines (IFN-γ, IL-2, IL-4, IL-6, IL-10, and TNF) secreted from splenocytes: relatively high levels
